In brackets after ≈: the same amount, converted by molar mass.
Assays:
Trypanosoma cruzi [1] = experiment: Inhibition of sterol biosynthesis in Trypanosoma cruzi EP epimastigotes assessed as ergosterol levels at 3 uM after 120 hrs; assay type: functional; parameters: scale not given: the % may be the effect or the level left
Trypanosoma cruzi [2] = experiment: Inhibition of sterol biosynthesis in Trypanosoma cruzi EP epimastigotes assessed as ergosterol levels at 10 uM after 120 hrs; assay type: functional; parameters: scale not given: the % may be the effect or the level left
Trypanosoma cruzi [3] = experiment: Inhibition of sterol biosynthesis in Trypanosoma cruzi EP epimastigotes assessed as 24-ethyl-5,7,22-cholestatrien-3beta-ol levels at 3 uM after 120 hrs; assay type: functional; parameters: scale not given: the % may be the effect or the level left
Trypanosoma cruzi [4] = experiment: Inhibition of sterol biosynthesis in Trypanosoma cruzi EP epimastigotes assessed as ergosta-5,7-24(24')-trien-3beta-ol levels at 3 uM after 120 hrs; assay type: functional; parameters: scale not given: the % may be the effect or the level left
Trypanosoma cruzi [5] = experiment: Inhibition of sterol biosynthesis in Trypanosoma cruzi EP epimastigotes assessed as ergosta-5,7-dien-3beta-ol levels at 3 uM after 120 hrs; assay type: functional; parameters: scale not given: the % may be the effect or the level left
Trypanosoma cruzi [6] = experiment: Inhibition of sterol biosynthesis in Trypanosoma cruzi EP epimastigotes assessed as 24-ethyl-5,7-cholestadien-3beta-ol levels at 3 uM after 120 hrs; assay type: functional; parameters: scale not given: the % may be the effect or the level left
Trypanosoma cruzi [7] = experiment: Antitrypanosomal activity against Trypanosoma cruzi Y epimastigotes after 48 hrs by MTT assay; assay type: functional, organism-based
Trypanosoma cruzi [8] = experiment: Effect on oxygen uptake in Trypanosoma cruzi Y epimastigotes assessed as rate of oxygen consumption at 60 uM relative to control; assay type: functional
Trypanosoma cruzi [9] = experiment: Effect on oxygen redox cycling in Trypanosoma cruzi Y epimastigotes assessed as rate of oxygen consumption at 60 uM in presence of cyanide relative to control; assay type: functional
Trypanosoma cruzi [10] = experiment: Antitrypanosomal activity against Trypanosoma cruzi EP epimastigotes after 96 hrs; assay type: functional
Trypanosoma cruzi [11] = experiment: Antitrypanosomal activity against Trypanosoma cruzi EP amastigotes; assay type: functional, organism-based
Trypanosoma cruzi [12] = experiment: Antitrypanosomal activity against Trypanosoma cruzi EP amastigotes in Vero cells after 96 hrs; assay type: functional
Vero = experiment: Cytotoxicity against african green monkey Vero cells; assay type: cell-based; details: Chlorocebus sabaeus
Trypanosoma cruzi [13] = experiment: Inhibition of sterol biosynthesis in Trypanosoma cruzi EP epimastigotes assessed as exogenous cholesterol levels at 3 uM after 120 hrs; assay type: functional; parameters: scale not given: the % may be the effect or the level left
Trypanosoma cruzi [14] = experiment: Inhibition of sterol biosynthesis in Trypanosoma cruzi EP epimastigotes assessed as exogenous cholesterol levels at 10 uM after 120 hrs; assay type: functional; parameters: scale not given: the % may be the effect or the level left
Trypanosoma cruzi [15] = experiment: Inhibition of sterol biosynthesis in Trypanosoma cruzi EP epimastigotes assessed as endogenous squalene levels at 3 uM after 120 hrs; assay type: functional; parameters: scale not given: the % may be the effect or the level left
Trypanosoma cruzi [16] = experiment: Inhibition of sterol biosynthesis in Trypanosoma cruzi EP epimastigotes assessed as endogenous squalene levels at 10 uM after 120 hrs; assay type: functional; parameters: scale not given: the % may be the effect or the level left
Trypanosoma cruzi [17] = experiment: Effect on oxygen uptake in Trypanosoma cruzi Y epimastigotes assessed as rate of oxygen consumption at 166 uM relative to control; assay type: functional
Trypanosoma cruzi [18] = experiment: Effect on oxygen redox cycling in Trypanosoma cruzi Y epimastigotes assessed as rate of oxygen consumption at 166 uM in presence of cyanide relative to control; assay type: functional
Trypanosoma cruzi [19] = experiment: Inhibition of sterol biosynthesis in Trypanosoma cruzi EP epimastigotes assessed as endogenous squalene levels at 30 uM after 120 hrs; assay type: functional; parameters: scale not given: the % may be the effect or the level left
Trypanosoma cruzi [20] = experiment: Inhibition of sterol biosynthesis in Trypanosoma cruzi EP epimastigotes assessed as ergosterol levels at 30 uM after 120 hrs; assay type: functional; parameters: scale not given: the % may be the effect or the level left
Trypanosoma cruzi [21] = experiment: Inhibition of sterol biosynthesis in Trypanosoma cruzi EP epimastigotes assessed as 24-ethyl-5,7,22-cholestatrien-3beta-ol levels at 30 uM after 120 hrs; assay type: functional; parameters: scale not given: the % may be the effect or the level left
Trypanosoma cruzi [22] = experiment: Inhibition of sterol biosynthesis in Trypanosoma cruzi EP epimastigotes assessed as ergosta-5,7-24(24')-trien-3beta-ol levels at 30 uM after 120 hrs; assay type: functional; parameters: scale not given: the % may be the effect or the level left
Trypanosoma cruzi [23] = experiment: Inhibition of sterol biosynthesis in Trypanosoma cruzi EP epimastigotes assessed as ergosta-5,7-dien-3beta-ol levels at 30 uM after 120 hrs; assay type: functional; parameters: scale not given: the % may be the effect or the level left
Trypanosoma cruzi [24] = experiment: Inhibition of sterol biosynthesis in Trypanosoma cruzi EP epimastigotes assessed as exogenous cholesterol levels at 30 uM after 120 hrs; assay type: functional; parameters: scale not given: the % may be the effect or the level left
Trypanosoma cruzi [25] = experiment: Effect on oxygen uptake in Trypanosoma cruzi Y epimastigotes assessed as rate of oxygen consumption at 80 uM relative to control; assay type: functional
Trypanosoma cruzi [26] = experiment: Effect on oxygen uptake in Trypanosoma cruzi Y epimastigotes assessed as rate of oxygen consumption at 120 uM relative to control; assay type: functional
Trypanosoma cruzi [27] = experiment: Effect on oxygen redox cycling in Trypanosoma cruzi Y epimastigotes assessed as rate of oxygen consumption at 80 uM in presence of cyanide relative to control; assay type: functional
Trypanosoma cruzi [28] = experiment: Effect on oxygen redox cycling in Trypanosoma cruzi Y epimastigotes assessed as rate of oxygen consumption at 120 uM in presence of cyanide relative to control; assay type: functional
Trypanosoma cruzi [29] = experiment: Inhibition of sterol biosynthesis in Trypanosoma cruzi EP epimastigotes assessed as ergosta-5,7-dien-3beta-ol levels at 10 uM after 120 hrs; assay type: functional; parameters: scale not given: the % may be the effect or the level left
Trypanosoma cruzi [30] = experiment: Inhibition of sterol biosynthesis in Trypanosoma cruzi EP epimastigotes assessed as ergosta-5,7-24(24')-trien-3beta-ol levels at 10 uM after 120 hrs; assay type: functional; parameters: scale not given: the % may be the effect or the level left
Trypanosoma cruzi [31] = experiment: Inhibition of sterol biosynthesis in Trypanosoma cruzi EP epimastigotes assessed as 24-ethyl-5,7-cholestadien-3beta-ol levels at 10 uM after 120 hrs; assay type: functional; parameters: scale not given: the % may be the effect or the level left

Compound	Activity (Trypanosoma cruzi [1]) [%]	Activity (Trypanosoma cruzi [3]) [%]	Activity (Trypanosoma cruzi [5]) [%]	IC50 (Trypanosoma cruzi [7]) [µM]	MIC (Trypanosoma cruzi [10]) [µM]	IC50 (Trypanosoma cruzi [11]) [µM]	MIC (Trypanosoma cruzi [12]) [µM]	IC50 (Vero) [µM]	Activity (Trypanosoma cruzi [13]) [%]	Activity (Trypanosoma cruzi [14]) [%]	Activity (Trypanosoma cruzi [15]) [%]	Activity (Trypanosoma cruzi [16]) [%]	Activity (Trypanosoma cruzi [19]) [%]	Activity (Trypanosoma cruzi [20]) [%]	Activity (Trypanosoma cruzi [21]) [%]	Activity (Trypanosoma cruzi [24]) [%]	further results
O=C(N/N=C/c1ccc([N+](=O)[O-])o1)Oc1ccccc1	7.6	9	6	10.6	10 (≈ 2.75 µg/mL)	2.3	30 (≈ 8.26 µg/mL)	19.4	32.3	35	39.1	60.6					Activity (Trypanosoma cruzi [2]): 4.4%; Activity (Trypanosoma cruzi [4]): 2.4%; Activity (Trypanosoma cruzi [6]): 3.6%; Activity (Trypanosoma cruzi [8]): 105%; Activity (Trypanosoma cruzi [9]): 31%
O=C(N/N=C/C=C/c1ccc([N+](=O)[O-])o1)Oc1ccccc1	7.9			6.7	3 (≈ 0.904 µg/mL)	0.31	3 (≈ 0.904 µg/mL)	9.1	46.9	8.1	45.2	91.9					Activity (Trypanosoma cruzi [17]): 88%; Activity (Trypanosoma cruzi [18]): 8%
C=CCOC(=O)N/N=C/C=C/c1ccc([N+](=O)[O-])o1					> 30								36.4	15	10.6	29.4	Activity (Trypanosoma cruzi [22]): 4%; Activity (Trypanosoma cruzi [23]): 4.6%
C=C(C)CNC(=O)N/N=C/c1ccc([N+](=O)[O-])o1				3.8	10 (≈ 2.52 µg/mL)	0.9	10 (≈ 2.52 µg/mL)	32.1		31.9		68.1					Activity (Trypanosoma cruzi [25]): 110%; Activity (Trypanosoma cruzi [26]): 148%; Activity (Trypanosoma cruzi [27]): 33%; Activity (Trypanosoma cruzi [28]): 27%
C=CCOC(=O)N/N=C/c1ccc([N+](=O)[O-])o1					30 (≈ 7.18 µg/mL)								33.1	7	6.8	53.1	
O=C(N/N=C/c1ccc([N+](=O)[O-])o1)OC/C=C/c1ccccc1					30 (≈ 9.46 µg/mL)					52.5		16	64.4	5.8	7.8	22	Activity (Trypanosoma cruzi [2]): 10.4%; Activity (Trypanosoma cruzi [29]): 5%; Activity (Trypanosoma cruzi [30]): 2.3%
O=C(N/N=C/C=C/c1ccc([N+](=O)[O-])o1)OC/C=C/c1ccccc1	21	16	8	3.7	10 (≈ 3.41 µg/mL)	0.65	10 (≈ 3.41 µg/mL)	11.1	33.9	6.7	19	93.3					Activity (Trypanosoma cruzi [4]): 2.1%; Activity (Trypanosoma cruzi [31]): 6.7%; Activity (Trypanosoma cruzi [25]): 89%; Activity (Trypanosoma cruzi [26]): 160%; Activity (Trypanosoma cruzi [27]): 38%; Activity (Trypanosoma cruzi [28]): 40%
C=C(C)CNC(=O)N/N=C/C=C/c1ccc([N+](=O)[O-])o1	18.4	10.8	6.1		10 (≈ 2.78 µg/mL)				20.3	9.2	44.4	90.8					
